Assay results as given in paper PMC10175918 (Communications Biology, 2023).
Read-outs that look alike come from different tables or passages of the source.

Experiments:
Assay in all cases: TGFα-shedding assay-based GPCR screening with chimeric Gα subunit proteins
Type in all cases: cell-based
348 GPCRs [1] = target: T1, 348 GPCRs (Homo sapiens, UniProt P32238); conditions: 10µM, Favipiravir 100μM
T1 sequence (P32238 1-428): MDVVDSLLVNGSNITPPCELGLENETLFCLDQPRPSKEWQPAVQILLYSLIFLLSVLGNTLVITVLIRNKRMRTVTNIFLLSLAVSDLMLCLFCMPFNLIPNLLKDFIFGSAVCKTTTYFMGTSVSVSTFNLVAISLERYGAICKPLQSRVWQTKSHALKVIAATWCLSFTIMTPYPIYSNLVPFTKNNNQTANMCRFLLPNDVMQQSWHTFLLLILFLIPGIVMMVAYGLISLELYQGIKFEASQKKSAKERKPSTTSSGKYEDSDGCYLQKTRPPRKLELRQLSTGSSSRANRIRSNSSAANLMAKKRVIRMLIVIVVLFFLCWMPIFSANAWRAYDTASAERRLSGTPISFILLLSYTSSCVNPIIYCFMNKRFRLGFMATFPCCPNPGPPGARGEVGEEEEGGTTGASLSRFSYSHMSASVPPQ

348 GPCRs [2] = target: T2, 348 GPCRs (Homo sapiens, UniProt Q9Y2T6)
T2 construct: expressed in transfected cells; host or cells: HEK293A
T2 sequence (Q9Y2T6 whole entry): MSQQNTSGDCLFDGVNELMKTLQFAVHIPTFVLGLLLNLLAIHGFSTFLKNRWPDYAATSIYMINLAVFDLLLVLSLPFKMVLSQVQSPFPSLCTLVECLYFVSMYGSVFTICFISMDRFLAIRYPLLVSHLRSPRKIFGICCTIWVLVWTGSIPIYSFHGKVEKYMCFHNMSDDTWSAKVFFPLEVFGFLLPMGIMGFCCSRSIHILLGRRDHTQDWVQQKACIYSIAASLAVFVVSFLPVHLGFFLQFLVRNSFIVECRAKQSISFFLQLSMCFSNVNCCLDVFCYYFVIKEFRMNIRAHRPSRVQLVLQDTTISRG

348 GPCRs [3] = target: 348 GPCRs (Homo sapiens, UniProt P07550); conditions: 10µM, Favipiravir 100μM
348 GPCRs (Homo sapiens, UniProt P07550), sequence (P07550 whole entry): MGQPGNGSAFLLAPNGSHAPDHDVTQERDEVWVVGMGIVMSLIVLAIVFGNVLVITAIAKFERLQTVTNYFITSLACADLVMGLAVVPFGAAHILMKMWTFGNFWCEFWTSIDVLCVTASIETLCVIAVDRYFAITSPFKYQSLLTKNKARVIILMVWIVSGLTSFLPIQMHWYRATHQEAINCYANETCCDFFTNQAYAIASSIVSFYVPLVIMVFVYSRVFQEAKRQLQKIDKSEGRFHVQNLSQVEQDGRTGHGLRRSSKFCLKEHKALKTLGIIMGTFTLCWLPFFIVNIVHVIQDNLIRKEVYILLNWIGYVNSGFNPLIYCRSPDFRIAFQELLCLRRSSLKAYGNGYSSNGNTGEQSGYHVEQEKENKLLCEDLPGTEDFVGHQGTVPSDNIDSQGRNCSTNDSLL

348 GPCRs [4] = target: T3, 348 GPCRs (Homo sapiens, UniProt P29274); conditions: ADORA2A (adenosine A2a receptor); 10µM, Favipiravir 100μM
T3 construct: expressed in transfected cells; host or cells: HEK293A
T3 sequence (P29274 whole entry): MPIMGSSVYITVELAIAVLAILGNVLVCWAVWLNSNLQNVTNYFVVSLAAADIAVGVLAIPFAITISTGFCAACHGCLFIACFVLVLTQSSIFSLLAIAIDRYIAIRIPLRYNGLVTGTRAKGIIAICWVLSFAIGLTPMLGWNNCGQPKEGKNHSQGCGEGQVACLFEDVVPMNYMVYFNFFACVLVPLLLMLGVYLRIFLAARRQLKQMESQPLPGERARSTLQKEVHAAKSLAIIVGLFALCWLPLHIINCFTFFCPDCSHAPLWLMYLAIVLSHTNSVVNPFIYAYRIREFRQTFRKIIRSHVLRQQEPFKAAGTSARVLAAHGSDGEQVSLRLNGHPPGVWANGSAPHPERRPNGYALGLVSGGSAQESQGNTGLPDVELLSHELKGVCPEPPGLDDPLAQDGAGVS

348 GPCRs [5] = target: T4, 348 GPCRs (Homo sapiens, UniProt Q9Y653)
T4 construct: expressed in transfected cells; host or cells: HEK293A
T4 sequence (Q9Y653 26-693): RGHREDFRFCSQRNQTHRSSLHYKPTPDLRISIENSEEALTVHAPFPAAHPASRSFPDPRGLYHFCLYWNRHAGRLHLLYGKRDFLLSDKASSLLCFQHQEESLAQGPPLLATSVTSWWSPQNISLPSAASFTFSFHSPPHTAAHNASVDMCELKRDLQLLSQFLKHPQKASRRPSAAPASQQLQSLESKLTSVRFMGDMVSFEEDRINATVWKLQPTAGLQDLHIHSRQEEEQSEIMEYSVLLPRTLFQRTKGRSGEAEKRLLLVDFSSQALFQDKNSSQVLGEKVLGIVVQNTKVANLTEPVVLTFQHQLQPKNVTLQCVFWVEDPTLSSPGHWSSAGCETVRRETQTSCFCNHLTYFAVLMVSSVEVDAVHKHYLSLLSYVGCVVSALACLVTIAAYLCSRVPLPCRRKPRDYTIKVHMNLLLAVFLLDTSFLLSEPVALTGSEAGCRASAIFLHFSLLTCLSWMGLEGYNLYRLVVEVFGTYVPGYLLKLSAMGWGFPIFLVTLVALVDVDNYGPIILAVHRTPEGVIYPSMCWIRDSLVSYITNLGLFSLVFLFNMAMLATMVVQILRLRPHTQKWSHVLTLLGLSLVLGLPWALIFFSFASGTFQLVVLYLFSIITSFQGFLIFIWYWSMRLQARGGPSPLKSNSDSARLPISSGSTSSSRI

348 GPCRs [6] = target: T5, 348 GPCRs (Homo sapiens, UniProt O15218); conditions: 10µM, Favipiravir 100μM
T5 construct: expressed in transfected cells; host or cells: HEK293A
T5 sequence (O15218 whole entry): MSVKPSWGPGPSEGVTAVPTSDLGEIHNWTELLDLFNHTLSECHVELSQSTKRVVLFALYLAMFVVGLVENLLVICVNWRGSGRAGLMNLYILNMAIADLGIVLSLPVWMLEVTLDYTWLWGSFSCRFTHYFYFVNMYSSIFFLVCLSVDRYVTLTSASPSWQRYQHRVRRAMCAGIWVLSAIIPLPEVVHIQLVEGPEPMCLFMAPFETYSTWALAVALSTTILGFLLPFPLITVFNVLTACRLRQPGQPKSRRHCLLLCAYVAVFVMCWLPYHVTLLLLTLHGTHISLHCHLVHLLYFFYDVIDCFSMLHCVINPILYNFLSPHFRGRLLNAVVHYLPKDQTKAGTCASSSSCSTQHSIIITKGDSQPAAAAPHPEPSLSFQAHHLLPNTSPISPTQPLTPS

348 GPCRs [7] = target: T6, 348 GPCRs (Homo sapiens, UniProt Q16581); conditions: 10µM, Favipiravir 100μM
T6 sequence (Q16581 1-482): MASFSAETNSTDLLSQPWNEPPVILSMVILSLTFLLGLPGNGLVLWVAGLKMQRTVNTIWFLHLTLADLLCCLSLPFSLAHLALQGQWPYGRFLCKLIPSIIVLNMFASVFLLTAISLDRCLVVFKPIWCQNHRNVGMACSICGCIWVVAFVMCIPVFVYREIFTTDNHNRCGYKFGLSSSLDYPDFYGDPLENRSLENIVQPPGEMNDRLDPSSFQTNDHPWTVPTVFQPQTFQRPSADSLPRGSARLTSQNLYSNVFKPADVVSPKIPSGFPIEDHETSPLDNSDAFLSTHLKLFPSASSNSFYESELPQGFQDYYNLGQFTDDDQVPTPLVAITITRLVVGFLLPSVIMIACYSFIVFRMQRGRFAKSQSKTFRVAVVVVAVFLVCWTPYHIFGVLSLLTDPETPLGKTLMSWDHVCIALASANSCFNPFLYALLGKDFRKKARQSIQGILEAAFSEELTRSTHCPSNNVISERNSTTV

348 GPCRs [8] = target: T7, 348 GPCRs (Homo sapiens, UniProt O00398)
T7 construct: expressed in transfected cells; host or cells: HEK293A
T7 sequence (O00398 whole entry): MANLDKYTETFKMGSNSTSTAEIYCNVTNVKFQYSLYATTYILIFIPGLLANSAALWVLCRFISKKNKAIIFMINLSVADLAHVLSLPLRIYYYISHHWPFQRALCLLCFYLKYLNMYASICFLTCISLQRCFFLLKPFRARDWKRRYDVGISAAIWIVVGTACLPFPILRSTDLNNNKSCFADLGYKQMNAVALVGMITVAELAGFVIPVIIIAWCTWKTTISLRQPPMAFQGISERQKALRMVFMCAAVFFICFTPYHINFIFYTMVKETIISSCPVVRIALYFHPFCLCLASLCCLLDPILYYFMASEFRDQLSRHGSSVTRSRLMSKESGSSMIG

348 GPCRs [9] = target: T8, 348 GPCRs (Homo sapiens, UniProt Q8TDU9); conditions: RXFP4 (relaxin/insulin-like family peptide receptor 4); 10µM, Favipiravir 100μM
T8 construct: expressed in transfected cells; host or cells: HEK293A
T8 sequence (Q8TDU9 whole entry): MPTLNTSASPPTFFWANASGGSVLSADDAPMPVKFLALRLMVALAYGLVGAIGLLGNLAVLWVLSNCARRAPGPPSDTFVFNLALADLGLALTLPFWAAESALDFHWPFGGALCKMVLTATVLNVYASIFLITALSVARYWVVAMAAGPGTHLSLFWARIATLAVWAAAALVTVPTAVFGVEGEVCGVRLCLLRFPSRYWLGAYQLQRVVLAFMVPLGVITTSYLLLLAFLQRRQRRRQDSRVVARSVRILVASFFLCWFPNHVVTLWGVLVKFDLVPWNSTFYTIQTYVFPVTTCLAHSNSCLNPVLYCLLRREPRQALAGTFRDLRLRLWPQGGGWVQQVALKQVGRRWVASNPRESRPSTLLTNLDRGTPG

348 GPCRs [10] = target: T9, 348 GPCRs (Homo sapiens, UniProt P35408); conditions: 10µM, Favipiravir 100μM
T9 construct: expressed in transfected cells; host or cells: HEK293A
T9 sequence (P35408 whole entry): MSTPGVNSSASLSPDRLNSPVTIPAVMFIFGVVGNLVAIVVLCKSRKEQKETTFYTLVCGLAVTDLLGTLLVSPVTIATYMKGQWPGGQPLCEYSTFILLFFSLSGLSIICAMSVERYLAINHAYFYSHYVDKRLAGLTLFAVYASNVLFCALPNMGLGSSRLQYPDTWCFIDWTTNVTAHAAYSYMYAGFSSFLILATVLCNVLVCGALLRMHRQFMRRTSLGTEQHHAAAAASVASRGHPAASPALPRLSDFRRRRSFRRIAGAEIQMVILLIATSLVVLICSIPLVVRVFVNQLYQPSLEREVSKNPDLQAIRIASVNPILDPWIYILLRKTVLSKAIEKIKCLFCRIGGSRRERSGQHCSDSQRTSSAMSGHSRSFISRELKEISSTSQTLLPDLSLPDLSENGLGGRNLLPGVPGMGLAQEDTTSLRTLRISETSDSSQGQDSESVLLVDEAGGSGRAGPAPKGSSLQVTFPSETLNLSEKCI

348 GPCRs [11] = target: T10, 348 GPCRs (Homo sapiens, UniProt P41597); conditions: 10µM, Favipiravir 100μM
T10 construct: expressed in transfected cells; host or cells: HEK293A
T10 sequence (P41597 whole entry): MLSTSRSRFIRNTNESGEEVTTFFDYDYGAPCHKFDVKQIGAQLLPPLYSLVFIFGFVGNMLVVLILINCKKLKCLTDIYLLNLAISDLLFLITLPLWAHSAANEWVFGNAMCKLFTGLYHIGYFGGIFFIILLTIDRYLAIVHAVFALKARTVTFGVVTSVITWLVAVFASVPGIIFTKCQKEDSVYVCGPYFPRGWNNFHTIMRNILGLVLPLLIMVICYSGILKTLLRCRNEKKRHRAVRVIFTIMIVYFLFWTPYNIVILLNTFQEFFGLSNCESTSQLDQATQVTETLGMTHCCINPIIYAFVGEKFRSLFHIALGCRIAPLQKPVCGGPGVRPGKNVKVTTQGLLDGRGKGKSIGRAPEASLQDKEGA

348 GPCRs [12] = target: T11, 348 GPCRs (Homo sapiens, UniProt P04001); conditions: 10µM, Favipiravir 100μM
T11 construct: expressed in transfected cells; host or cells: HEK293A
T11 sequence (P04001 1-364): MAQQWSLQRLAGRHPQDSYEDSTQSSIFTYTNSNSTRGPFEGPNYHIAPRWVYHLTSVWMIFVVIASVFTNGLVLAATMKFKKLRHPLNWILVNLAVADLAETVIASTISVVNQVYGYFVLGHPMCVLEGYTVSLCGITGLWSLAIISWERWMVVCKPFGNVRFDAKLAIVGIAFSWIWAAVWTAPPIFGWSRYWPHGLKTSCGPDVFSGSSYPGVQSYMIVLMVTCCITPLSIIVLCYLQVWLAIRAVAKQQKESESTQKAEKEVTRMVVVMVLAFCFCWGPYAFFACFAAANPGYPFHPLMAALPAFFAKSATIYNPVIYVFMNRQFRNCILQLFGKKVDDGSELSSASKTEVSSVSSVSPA

348 GPCRs [13] = target: T12, 348 GPCRs (Homo sapiens, UniProt Q8TDU6); conditions: 10µM, Favipiravir 100μM
T12 construct: expressed in transfected cells; host or cells: HEK293A
T12 sequence (Q8TDU6 1-330): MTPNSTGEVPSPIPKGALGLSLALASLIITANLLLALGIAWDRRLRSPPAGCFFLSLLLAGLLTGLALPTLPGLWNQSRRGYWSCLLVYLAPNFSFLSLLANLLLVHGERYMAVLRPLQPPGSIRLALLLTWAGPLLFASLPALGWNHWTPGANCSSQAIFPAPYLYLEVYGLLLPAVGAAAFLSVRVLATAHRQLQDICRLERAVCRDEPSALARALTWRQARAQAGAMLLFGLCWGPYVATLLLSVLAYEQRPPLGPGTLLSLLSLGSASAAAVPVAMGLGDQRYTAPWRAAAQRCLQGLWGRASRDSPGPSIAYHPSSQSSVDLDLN

[14] = CCKAR (cholecystokinin A receptor), read-out: % GPCR activation compared to TPA
[15] = ADRB2 (adrenoceptor beta 2, surface), read-out: % GPCR activation compared to TPA
[16] = GPR182 (G protein-coupled receptor 182), read-out: % GPCR activation compared to TPA
[17] = C3AR1 (complement C3a receptor 1), read-out: % GPCR activation compared to TPA
[18] = EP4 (prostaglandin E receptor 4), read-out: % GPCR activation compared to TPA
[19] = CCR2 (C-C motif chemokine receptor 2), read-out: % GPCR activation compared to TPA
[20] = OPN1MW (opsin 1 (cone pigments), medium-wave-sensitive), read-out: % GPCR activation compared to TPA
[21] = GPBA (G protein-coupled bile acid receptor 1), read-out: % GPCR activation compared to TPA
[22] = read-out: % GPCR activation compared to TPA, CCKAR (cholecystokinin A receptor)
[23] = read-out: % GPCR activation compared to TPA, GPCR GPR55 (G Protein-Coupled Receptor 55)
[24] = read-out: % GPCR activation compared to TPA, ADRB2 (adrenoceptor beta 2, surface)
[25] = read-out: % GPCR activation compared to TPA, GPCR GPR56 (G protein-coupled receptor 56)
[26] = read-out: % GPCR activation compared to TPA, GPR182 (G protein-coupled receptor 182)
[27] = read-out: % GPCR activation compared to TPA, C3AR1 (complement C3a receptor 1)
[28] = read-out: % GPCR activation compared to TPA, GPCR P2RY10 (purinergic receptor P2Y, G-protein coupled, 10)
[29] = read-out: % GPCR activation compared to TPA, EP4 (prostaglandin E receptor 4)
[30] = read-out: % GPCR activation compared to TPA, CCR2 (C-C motif chemokine receptor 2)
[31] = read-out: % GPCR activation compared to TPA, OPN1MW (opsin 1 (cone pigments), medium-wave-sensitive)
[32] = read-out: % GPCR activation compared to TPA, GPBA (G protein-coupled bile acid receptor 1)
[33] = GPCR GPR55 (G Protein-Coupled Receptor 55), read-out: % GPCR activation compared to TPA
[34] = GPCR GPR56 (G protein-coupled receptor 56), read-out: % GPCR activation compared to TPA
[35] = GPCR P2RY10 (purinergic receptor P2Y, G-protein coupled, 10), read-out: % GPCR activation compared to TPA

SMILES | activation at 100 µM (348 GPCRs [1]; [14]) [%] | activation at 10 µM (348 GPCRs [3]; [15]) [%] | % GPCR activation compared to TPA (348 GPCRs [4]) [%] | activation at 100 µM (348 GPCRs [6]; [16]) [%] | activation at 10 µM (348 GPCRs [7]; [17]) [%] | % GPCR activation compared to TPA (348 GPCRs [9]) [%] | activation at 10 µM (348 GPCRs [10]; [18]) [%] | activation at 100 µM (348 GPCRs [11]; [19]) [%] | activation at 100 µM (348 GPCRs [12]; [20]) [%] | activation at 10 µM (348 GPCRs [13]; [21]) [%] | activation at 100 µM (348 GPCRs [1]; [22]) [%] | activation at 10 µM (348 GPCRs [2]; [23]) [%] | activation at 10 µM (348 GPCRs [3]; [24]) [%] | activation at 10 µM (348 GPCRs [5]; [25]) [%] | activation at 100 µM (348 GPCRs [6]; [26]) [%] | activation at 10 µM (348 GPCRs [7]; [27]) [%] | activation at 10 µM (348 GPCRs [8]; [28]) [%] | activation at 10 µM (348 GPCRs [10]; [29]) [%] | activation at 100 µM (348 GPCRs [11]; [30]) [%] | activation at 100 µM (348 GPCRs [12]; [31]) [%] | other results
NC(=O)c1nc(F)cnc1O [favipiravir, 6-fluoro-3-hydroxy-2-pyrazinecarboxamide] | -0.523 | -1 | 2.3424 | -0.288 | 1.69 | 1.69 | -1.55 | 5.66 | -0.549 | 0.241 |  |  |  |  |  |  |  |  |  |  | activation at 100 µM (348 GPCRs [2]; GPCR GPR55 (G Protein-Coupled Receptor 55), 100μM, read-out: % GPCR activation compared to TPA): -0.0195%; activation at 100 µM (348 GPCRs [5]; GPCR GPR56 (G protein-coupled receptor 56), 100μM, read-out: % GPCR activation compared to TPA): -0.74%; activation at 100 µM (348 GPCRs [8]; GPCR P2RY10 (purinergic receptor P2Y, G-protein coupled, 10), 100μM, read-out: % GPCR activation compared to TPA): -0.745%
CC(C)OC(=O)[C@H](C)N[P@](=O)(OC[C@H]1O[C@@H](n2ccc(=O)[nH]c2=O)[C@](C)(F)[C@@H]1O)Oc1ccccc1 [sofosbuvir] |  |  | -2.149 |  |  | -1.565 |  |  |  |  | -1.34 | -0.223 | 1.76 | 0.191 | 0.0893 | -0.133 | 0.334 | 0.58 | -0.876 | -1.41 | activation at 10 µM (348 GPCRs [13]; [32]): -0.805%
CCC(CC)COC(=O)[C@H](C)N[P@](=O)(OC[C@H]1O[C@@](C#N)(c2ccc3c(N)ncnn23)[C@H](O)[C@@H]1O)Oc1ccccc1 [remdesivir] |  |  | 3.955 |  |  | 0.9967 |  |  |  |  | 1.15 | -2.75 | 1.06 | -0.797 | 2.44 | 6.7 | -1.53 | 4.74 | 5.23 | 1.48 | activation at 10 µM (348 GPCRs [13]; [32]): -1.26%
N#C[C@@]1(c2ccc3c(N)ncnn23)O[C@H](CO)[C@@H](O)[C@H]1O [GS441524] | -2.84 | -0.409 | 1.631 | 0.124 | 3.33 | -0.3375 | -2.87 | 2.78 | -1.4 | -1.79 |  |  |  |  |  |  |  |  |  |  | activation at 10 µM (348 GPCRs [2]; [33]): -0.0977%; activation at 10 µM (348 GPCRs [5]; [34]): -3.73%; activation at 10 µM (348 GPCRs [8]; [35]): -1.36%
CC(C)C(=O)OC[C@H]1O[C@@H](n2ccc(NO)nc2=O)[C@H](O)[C@@H]1O [molnupiravir] | 2.71 | 0.263 | -1.952 | 0.0693 | -0.773 | -0.4598 | 0.931 | 0.105 | -0.857 | -1.97 |  |  |  |  |  |  |  |  |  |  | activation at 10 µM (348 GPCRs [2]; [33]): 0.0448%; activation at 10 µM (348 GPCRs [5]; [34]): -2.2%; activation at 10 µM (348 GPCRs [8]; [35]): -1.61%
